Results as given in patent EP4660182A1, “NAV1.7- AND/OR NAV1.8-INHIBITING ARYL PYRIDINE COMPOUNDS, PROCESSES FOR THE PREPARATION THEREOF, COMPOSITIONS, USES, METHODS FOR TREATMENT USING SAME, AND KITS” (Eurofarma Laboratórios S.A., priority 2023, dated 2024).
pIC50: −log10 of the molar value.

What was measured:
[1] = target: T1, human sodium channels Nav 1.8 (Homo sapiens, UniProt Q9Y5Y9); assay: Automated whole-cell voltage-clamp (ScreenPatch 384P) sodium current block, Nav 1.8; format: cell-based; conditions: CHO cells stably expressing human Nav 1.8; inactivation step -40 mV 8 s, test step 10 mV (TP1A); eight concentrations; exposure at least five minutes; room temperature; read-out: Nav1.8 IC50
T1 construct: expressed in transfected cells
Method in brief: (§1)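 Stable CHO lines, whole-cell automated patch clamp at room temperature, ≥5 min exposure, eight concentrations. From -100 mV hold, 8 s at -40 mV, 20 ms at -100 mV, then test pulse to 10 mV (Nav 1.8) or 0 mV (Nav 1.7) at 0.05 Hz; peak-current % block fitted for IC50, averaged over repeats.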

[2] = target: T2, human sodium channels Nav 1.7 (Homo sapiens, UniProt Q15858); assay: Automated whole-cell voltage-clamp (ScreenPatch 384P) sodium current block, Nav 1.7; format: cell-based; conditions: CHO cells stably expressing human Nav 1.7; inactivation step -40 mV 8 s, test step 0 mV (TP1A); eight concentrations; exposure at least five minutes; room temperature; read-out: Nav1.7 IC50
T2 construct: expressed in transfected cells
Method in brief: as §1

T2 sequence (Q15858 whole entry): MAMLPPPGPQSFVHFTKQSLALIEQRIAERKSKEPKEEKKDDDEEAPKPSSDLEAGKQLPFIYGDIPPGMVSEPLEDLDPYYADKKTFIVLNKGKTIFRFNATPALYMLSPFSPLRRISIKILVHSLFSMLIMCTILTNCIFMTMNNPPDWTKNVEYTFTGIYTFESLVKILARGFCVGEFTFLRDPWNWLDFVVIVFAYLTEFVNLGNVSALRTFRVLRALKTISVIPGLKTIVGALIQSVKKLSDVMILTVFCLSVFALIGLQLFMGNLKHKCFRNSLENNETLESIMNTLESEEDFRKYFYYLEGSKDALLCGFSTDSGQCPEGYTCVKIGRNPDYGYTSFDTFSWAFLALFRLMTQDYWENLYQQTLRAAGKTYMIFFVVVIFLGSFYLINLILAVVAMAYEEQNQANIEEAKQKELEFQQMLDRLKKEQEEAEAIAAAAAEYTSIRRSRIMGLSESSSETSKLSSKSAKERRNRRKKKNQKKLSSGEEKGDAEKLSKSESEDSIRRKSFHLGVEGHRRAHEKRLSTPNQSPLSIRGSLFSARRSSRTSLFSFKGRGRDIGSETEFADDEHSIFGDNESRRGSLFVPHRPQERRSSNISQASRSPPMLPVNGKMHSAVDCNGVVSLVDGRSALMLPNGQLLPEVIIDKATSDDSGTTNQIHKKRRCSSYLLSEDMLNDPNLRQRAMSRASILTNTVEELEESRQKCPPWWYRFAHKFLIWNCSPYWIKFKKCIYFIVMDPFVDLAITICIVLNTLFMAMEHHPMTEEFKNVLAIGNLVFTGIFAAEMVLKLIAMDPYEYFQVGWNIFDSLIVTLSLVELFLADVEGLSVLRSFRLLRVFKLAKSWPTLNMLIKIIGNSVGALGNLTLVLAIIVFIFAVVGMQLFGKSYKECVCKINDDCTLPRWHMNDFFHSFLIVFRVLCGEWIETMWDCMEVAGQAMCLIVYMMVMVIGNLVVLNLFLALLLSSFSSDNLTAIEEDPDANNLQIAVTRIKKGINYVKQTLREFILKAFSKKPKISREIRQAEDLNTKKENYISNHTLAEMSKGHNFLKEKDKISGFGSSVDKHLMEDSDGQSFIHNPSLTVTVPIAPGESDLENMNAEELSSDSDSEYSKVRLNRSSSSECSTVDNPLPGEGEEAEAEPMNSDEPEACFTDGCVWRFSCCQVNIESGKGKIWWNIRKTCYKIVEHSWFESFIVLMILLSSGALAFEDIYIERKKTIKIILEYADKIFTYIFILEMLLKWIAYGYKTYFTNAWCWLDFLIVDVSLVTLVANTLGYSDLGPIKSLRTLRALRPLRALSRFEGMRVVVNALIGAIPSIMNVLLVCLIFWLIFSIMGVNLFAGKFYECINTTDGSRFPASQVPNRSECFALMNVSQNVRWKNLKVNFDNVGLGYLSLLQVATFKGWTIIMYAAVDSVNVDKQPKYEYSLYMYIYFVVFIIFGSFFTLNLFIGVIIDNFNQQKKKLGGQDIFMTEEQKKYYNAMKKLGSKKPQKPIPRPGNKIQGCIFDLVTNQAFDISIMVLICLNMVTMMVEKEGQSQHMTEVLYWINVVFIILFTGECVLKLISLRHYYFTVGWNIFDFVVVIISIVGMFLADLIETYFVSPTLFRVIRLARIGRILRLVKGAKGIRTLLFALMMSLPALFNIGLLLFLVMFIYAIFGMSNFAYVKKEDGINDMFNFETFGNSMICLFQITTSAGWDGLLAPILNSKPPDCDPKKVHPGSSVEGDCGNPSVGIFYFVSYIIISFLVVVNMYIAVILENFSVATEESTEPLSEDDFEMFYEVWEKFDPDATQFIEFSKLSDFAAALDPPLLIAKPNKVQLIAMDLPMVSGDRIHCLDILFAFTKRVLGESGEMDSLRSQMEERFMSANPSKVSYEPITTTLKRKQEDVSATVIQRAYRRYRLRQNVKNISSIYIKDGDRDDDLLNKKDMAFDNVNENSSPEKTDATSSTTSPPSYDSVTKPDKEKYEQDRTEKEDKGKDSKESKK
T1 sequence (Q9Y5Y9 whole entry): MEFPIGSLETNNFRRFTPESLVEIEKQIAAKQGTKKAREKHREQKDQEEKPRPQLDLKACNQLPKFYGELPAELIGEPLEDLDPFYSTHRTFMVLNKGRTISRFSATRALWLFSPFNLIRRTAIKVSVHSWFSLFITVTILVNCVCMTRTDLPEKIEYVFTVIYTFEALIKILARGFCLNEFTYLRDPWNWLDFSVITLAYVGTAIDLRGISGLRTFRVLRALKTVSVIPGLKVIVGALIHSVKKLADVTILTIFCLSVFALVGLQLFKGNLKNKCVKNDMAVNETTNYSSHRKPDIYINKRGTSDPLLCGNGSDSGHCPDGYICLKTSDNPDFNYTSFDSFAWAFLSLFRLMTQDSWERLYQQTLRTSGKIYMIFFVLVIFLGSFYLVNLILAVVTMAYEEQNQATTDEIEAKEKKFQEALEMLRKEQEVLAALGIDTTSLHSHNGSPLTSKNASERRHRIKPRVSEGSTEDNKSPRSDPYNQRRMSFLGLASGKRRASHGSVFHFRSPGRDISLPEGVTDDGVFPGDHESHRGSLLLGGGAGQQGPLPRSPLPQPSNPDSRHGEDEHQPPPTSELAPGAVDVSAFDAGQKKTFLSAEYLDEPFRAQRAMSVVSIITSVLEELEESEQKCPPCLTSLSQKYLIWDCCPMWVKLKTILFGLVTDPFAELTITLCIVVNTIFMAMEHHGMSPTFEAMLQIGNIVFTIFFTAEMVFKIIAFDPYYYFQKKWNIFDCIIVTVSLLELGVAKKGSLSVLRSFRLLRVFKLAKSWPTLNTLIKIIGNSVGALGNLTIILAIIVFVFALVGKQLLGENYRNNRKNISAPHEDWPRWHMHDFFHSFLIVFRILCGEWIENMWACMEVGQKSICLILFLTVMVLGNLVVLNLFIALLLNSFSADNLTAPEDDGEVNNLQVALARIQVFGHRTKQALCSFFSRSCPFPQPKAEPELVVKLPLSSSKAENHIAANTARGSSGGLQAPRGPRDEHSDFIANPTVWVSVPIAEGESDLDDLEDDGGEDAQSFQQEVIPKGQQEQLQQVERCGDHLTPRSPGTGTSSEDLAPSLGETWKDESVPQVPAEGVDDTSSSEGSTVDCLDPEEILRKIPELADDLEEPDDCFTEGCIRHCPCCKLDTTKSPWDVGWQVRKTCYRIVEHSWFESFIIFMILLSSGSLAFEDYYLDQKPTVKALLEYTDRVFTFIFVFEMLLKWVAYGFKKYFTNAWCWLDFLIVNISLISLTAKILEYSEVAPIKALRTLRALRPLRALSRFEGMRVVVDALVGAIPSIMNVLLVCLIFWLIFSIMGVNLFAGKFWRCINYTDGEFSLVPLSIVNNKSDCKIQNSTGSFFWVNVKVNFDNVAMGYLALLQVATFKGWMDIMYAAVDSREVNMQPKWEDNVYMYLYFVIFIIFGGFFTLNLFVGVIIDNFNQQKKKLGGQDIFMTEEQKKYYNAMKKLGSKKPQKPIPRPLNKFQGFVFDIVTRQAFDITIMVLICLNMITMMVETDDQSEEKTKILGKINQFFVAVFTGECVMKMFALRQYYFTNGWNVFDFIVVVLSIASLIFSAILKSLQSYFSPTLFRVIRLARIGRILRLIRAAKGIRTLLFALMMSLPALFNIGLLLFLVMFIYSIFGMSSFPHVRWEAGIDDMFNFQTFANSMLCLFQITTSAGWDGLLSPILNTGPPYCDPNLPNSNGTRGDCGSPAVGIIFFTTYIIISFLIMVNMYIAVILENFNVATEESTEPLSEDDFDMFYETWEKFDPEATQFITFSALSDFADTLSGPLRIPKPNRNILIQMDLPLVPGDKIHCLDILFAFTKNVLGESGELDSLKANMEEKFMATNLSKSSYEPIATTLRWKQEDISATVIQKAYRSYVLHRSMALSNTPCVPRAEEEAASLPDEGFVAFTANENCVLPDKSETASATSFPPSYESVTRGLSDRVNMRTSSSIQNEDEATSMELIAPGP

pIC50 [1] | pIC50 [2] | SMILES
> 6.30 | < 6.00 | [2H]C([2H])([2H])Oc1cnc(F)c(/C=N/NC(=O)c2cncc(-c3ccc(OC([2H])([2H])C)nc3)n2)c1 [Compound 172, (E)-6-(6-(ethoxy-1,1-d2)pyridine-3-yl)-N'-((2-fluoro-5-(methoxy-d3)pyridine-3-yl)methylene)pyrazine-2-carbohydrazide]
> 6.30 | < 6.00 | [2H]C([2H])([2H])COc1ccc(-c2cncc(C(=O)N/N=C/c3cc(OC([2H])([2H])[2H])cnc3F)n2)cn1 [Compound 173, (E)-6-(6-(ethoxy-2,2,2-d3)pyridine-3-yl)-N'-((2-fluoro-5-(methoxy-d3)pyridine-3-yl)methylene)pyrazine-2-carbohydrazide]
> 6.30 | < 6.00 | [2H]C([2H])([2H])Oc1cnc(F)c(/C=N/NC(=O)c2cncc(-c3ccc(OC([2H])([2H])C([2H])([2H])[2H])nc3)n2)c1 [Compound 174, (E)-6-(6-(ethoxy-d5)pyridine-3-yl)-N'-((2-fluoro-5-(methoxy-d3)pyridine-3-yl)methylene)pyrazine-2-carbohydrazide]
< 6.00 | < 6.00 | CCOc1ccc(-c2cncc(C(=O)N(C)/N=C/c3cc(OC)cnc3F)n2)cn1 [Compound 175, (E)-6-(6-ethoxypyridine-3-yl)-N'-((2-fluoro-5-methoxypyridine-3-yl)methylene)-N-methylpyrazine-2-carbohydrazide]
< 6.00 | < 6.00 | COc1cnc(F)c(/C=N/N(C)C(=O)c2cncc(-c3ccc(OC(F)F)nc3)n2)c1 [Compound 176, (E)-6-(6-(difluoromethoxy)pyridine-3-yl)-N'-((2-fluoro-5-methoxypyridine-3-yl)methylene)-N-methylpyrazine-2-carbohydrazide]
